Among the data in ChEMBL document CHEMBL1139154, “Inhibitors of HCV NS5B polymerase: synthesis and structure-activity relationships of unsymmetrical 1-hydroxy-4,4-dialkyl-3-oxo-3,4-dihydronaphthalene benzothiadiazine derivatives” (Bioorg Med Chem Lett, 2007) are IC50 and EC50 values, retold here.

The test system of test [1] is Hepatitis C virus. Nature of the test: Inhibition of HCV 1b NS5B polymerase. Set-up: species or system Hepatitis C virus subtype 1b.
In test [2] the test system is Hepatitis C virus. The test can be described thus: Antiviral activity against HCV 1a replicon in presence of fetal calf serum. Type of test: functional, organism-based, Hepacivirus hominis. The conditions noted are these: subtype 1a. (In general: Replicon systems follow genome replication, usually without infectious particles.)
A short description of test [3]: Inhibition of HCV 1a NS5B polymerase. Set-up: species or system Hepatitis C virus subtype 1a.

By IC50 is commonly meant the concentration that gives 50% inhibition. For orientation: EC50 means the concentration giving half of the maximal effect. With `CCOC(=O)/C=C/CC1(C)C(=O)C(C2=NS(=O)(=O)c3cc(NS(C)(=O)=O)ccc3N2)=C(O)c2ccccc21` (stereo not drawn), the IC50 came out at 5.87 µM in test [1] and 1.08 µM in test [3]. In addition, the half-maximal effective concentration (EC50) in test [2] is more than 10 µM.
The like results for `CC1(CCC2CCCCC2)C(=O)C(C2=NS(=O)(=O)c3cc(NS(C)(=O)=O)ccc3N2)=C(O)c2ccccc21` (stereo not drawn) were, in that order, 0.194 µM, 0.057 µM and 2.71 µM.
The like results for `CC1(CC=C2CCC2)C(=O)C(C2=NS(=O)(=O)c3cc(NS(C)(=O)=O)ccc3N2)=C(O)c2ccccc21` (stereo not drawn) were, in that order, 0.425 µM, 0.087 µM and 1.19 µM.
In the case of `CC1(CCCc2ccccc2)C(=O)C(C2=NS(=O)(=O)c3cc(NS(C)(=O)=O)ccc3N2)=C(O)c2ccccc21` (stereo not drawn), the results for the IC50 in test [1] and in test [3] were 0.28 µM and 0.115 µM, respectively.
For `CCCC1(C)C(=O)C(C2=NS(=O)(=O)c3cc(NS(C)(=O)=O)ccc3N2)=C(O)c2ccccc21` (stereo not drawn), in test [2], the EC50 amounted to 0.184 µM. In test [3], this compound registered an IC50 of 0.02 µM.
On to `CC(C)CCC1(C)C(=O)C(C2=NS(=O)(=O)c3cc(NS(C)(=O)=O)ccc3N2)=C(O)c2ccccc21` (stereo not drawn), for which the IC50 is 0.007 µM in test [1] and 0.004 µM in test [3]. Besides, the EC50 in test [2] was 0.017 µM.
The like results for `CC1(CCC2CCC2)C(=O)C(C2=NS(=O)(=O)c3cc(NS(C)(=O)=O)ccc3N2)=C(O)c2ccccc21` (stereo not drawn) were, in that order, 0.036 µM, 0.016 µM and 0.19 µM.
The like results for `CC1(CCC2CCCC2)C(=O)C(C2=NS(=O)(=O)c3cc(NS(C)(=O)=O)ccc3N2)=C(O)c2ccccc21` (stereo not drawn) were, in that order, 0.07 µM, 0.032 µM and 0.32 µM.
As to `CC(C)(Cl)CCC1(C)C(=O)C(C2=NS(=O)(=O)c3cc(NS(C)(=O)=O)ccc3N2)=C(O)c2ccccc21` (stereo not drawn), the IC50 is 0.07 µM in test [1] and 0.039 µM in test [3]. In addition, in test [2], the EC50 was found to be 2.17 µM.
Turning to `CC(C)CCC1(CCC(C)C)C(=O)C(C2=NS(=O)(=O)c3cc(NS(C)(=O)=O)ccc3N2)=C(O)c2ccccc21`, the EC50 in test [2] was 0.423 µM. In test [3], this compound gave an IC50 of 0.068 µM.
Consider `CC(C)(O)CCC1(C)C(=O)C(C2=NS(=O)(=O)c3cc(NS(C)(=O)=O)ccc3N2)=C(O)c2ccccc21` (stereo not drawn), for which the figures for the IC50 in test [1] and in test [3] were 0.193 µM and 0.043 µM, respectively. In addition, the EC50 in test [2] was 8 µM.
For `C=CCC1(C)C(=O)C(C2=NS(=O)(=O)c3cc(NS(C)(=O)=O)ccc3N2)=C(O)c2ccccc21` (stereo not drawn), in that order: 0.225 µM, 0.018 µM and 0.69 µM.
As for `CC1(CCCO)C(=O)C(C2=NS(=O)(=O)c3cc(NS(C)(=O)=O)ccc3N2)=C(O)c2ccccc21` (stereo not drawn), the EC50 in test [2] stood at 0.86 µM.
In the case of `CC(C)=CC[C@]1(C)C(=O)C(C2=NS(=O)(=O)c3cc(NS(C)(=O)=O)ccc3N2)=C(O)c2ccccc21`, half-maximal inhibition in test [3] (IC50) was put at 0.702 µM.
On to `CC1(CC=C2CCCC2)C(=O)C(C2=NS(=O)(=O)c3cc(NS(C)(=O)=O)ccc3N2)=C(O)c2ccccc21` (stereo not drawn), for which the IC50 in test [1] is 0.55 µM; in test [3], 0.093 µM. Also, in test [2], the EC50 amounted to 1.49 µM.
For `CC1(CC2CC2)C(=O)C(C2=NS(=O)(=O)c3cc(NS(C)(=O)=O)ccc3N2)=C(O)c2ccccc21` (stereo not drawn), in that order: 0.04 µM, 0.021 µM and 0.16 µM.
The like results for `CC(C)=CCC1(C)C(=O)C(C2=NS(=O)(=O)c3cc(NS(C)(=O)=O)ccc3N2)=C(O)c2ccccc21` (stereo not drawn) were, in that order, 0.147 µM, 0.038 µM and 0.237 µM.
Regarding `CC1(C/C=C/c2ccccc2)C(=O)C(C2=NS(=O)(=O)c3cc(NS(C)(=O)=O)ccc3N2)=C(O)c2ccccc21` (stereo not drawn), the IC50 in test [1] came to 1.85 µM; in test [3] it was 0.46 µM.
On to `CC1(C)C(=O)C(C2=NS(=O)(=O)c3cc(NS(C)(=O)=O)ccc3N2)=C(O)c2ccccc21`, for which inhibition in test [3] was half-maximal at 0.933 µM (IC50).
Consider `CC1(CC=C2CCCCC2)C(=O)C(C2=NS(=O)(=O)c3cc(NS(C)(=O)=O)ccc3N2)=C(O)c2ccccc21` (stereo not drawn), for which the IC50 in test [1] came out at 0.91 µM; in test [3] it was 0.195 µM.
Regarding `CC1(CC(O)CO)C(=O)C(C2=NS(=O)(=O)c3cc(NS(C)(=O)=O)ccc3N2)=C(O)c2ccccc21` (stereo not drawn), the midpoint of inhibition in test [3], the IC50, lay at 0.45 µM.
For `CC(C)=CC[C@@]1(C)C(=O)C(C2=NS(=O)(=O)c3cc(NS(C)(=O)=O)ccc3N2)=C(O)c2ccccc21`, the figures for the IC50 in test [1] and in test [3] were 0.032 µM and 0.019 µM, respectively. For the same compound, the EC50 in test [2] was 0.134 µM.
